Test results from patent US8927547B2, “Pyrimidine derivatives” (Noviga Research AB, priority 2010, dated 2015).

System: CCRF-CEM cancer cells - leukaemia
Experiment: Fluorometric Microculture Cytotoxicity Assay (FMCA), CCRF-CEM
Type: cell-based
Details: Homo sapiens, 72 h incubation
Excerpt: The Fluorometric Microculture Cytotoxicity Assay, FMCA, is a three day non-clonogenic microplate-based cell viability assay used for measurement of the cytotoxic and/or cytostatic effect of compounds in vitro (Lindhagen, E., et al. Nat Protoc, 2008. 3(8): p. 1364-9). FMCA (Larsson, R. and P. Nygren, Anticancer Res, 1989. 9(4): p. 1111-9) represents a valuable method to measure cytotoxicity in a number of cell types, both cell lines and primary cells from patients (Larsson, R., et al., Int J Cancer, 1992. 50(2): p. 177-85; Fridborg, H., et al., Eur J Cancer, 1999. 35(3): p. 424-32; Dhar, S., et al., Br J Cancer, 1996. 74(6): p. 888-96).
FMCA is based on the principle that fluorescein diacetate (FDA) is converted to the fluorescent probe fluorescein by esterases in the plasma membranes of living cells. For experiments, 96 or 384-well microplates are prepared with compounds and stored at −70° C. until use. Cells are then seeded into the drug-prepared plates and placed in an incubator for 72 h. On the last day of incubation, the plates are washed and a buffer containing FDA is added and incubated with the cells for 45 minutes. Finally the fluorescence per well is measured in a fluorometer and a Survival Index % (SI) for each compound-treated well is calculated with the equation: Compound-treated cells minus blank divided by control cells minus blank. A high SI-value indicates a large percentage of living cells and vice versa.
In subsequent experiments, compounds were tested, along with kinase inhibitors (dasatinib, pazopanib, sorafenib, and sunitinib) as described above. Initially, the acute lymphoblastic leukaemia cell line CCRF-CEM (see e.g. Foley G E, et al. Cancer 1965, 18, 522-529) was used throughout. In the assay plates, medium was added to six empty wells (blank wells) and wells were filled with PBS and cell suspension and served as control wells. SI-values were then calculated for each compound-treated well as described above. All experiments were conducted twice and a new batch of plates was prepared for each experiment.
For dose-response experiments, 384-well plates were prepared as follows:
Compounds of the invention as well as kinase inhibitors sorafenib, sunitinib, dasatinib, and pazopanib (reference compounds) were diluted with PBS to a concentration which was ten-times higher than the desired starting concentration. Then, a Biomek 2000 liquid handling system was employed to serially dilute the compounds in a deep-well 384-well plate. From this plate, assay plates containing 5 μl compound per well were prepared with the Biomek 2000. Certain compounds precipitated when diluted with PBS, and these compounds were therefore prepared in a 96-well plate manually as described above using culture medium RPMI 1640 instead of PBS.
The compounds were also tested at five concentrations, with five times serial dilution on the following cell types: CCRF-CEM, hTERT-RPE1 (normal retinal epithelial cells), hRPTEpiC (normal renal cells) and PBMC (peripheral blood mononuclear cells). Each experiment was performed three times, except for PBMC and hRPTEpiC, which were performed twice. SI-values were calculated, graphs were plotted using GraphPadPrism 5.0 (GraphPad Software Inc. La Jolla, Calif.) and EC50-values for each cell type and compound were determined from the curves.

Row | SMILES | EC50
1 | c1cc(NCc2ccc3[nH]ccc3c2)nc(Nc2ccc3[nH]ccc3c2)n1 [Example 2, N^4-(1H-indol-5-ylmethyl)-N^2-(1H-indol-5-yl)pyrimidine-2,4-diamine] | 4.83 µM
2 | Cc1cc2cc(Nc3nccc(NCc4ccc5[nH]ccc5c4)n3)ccc2[nH]1 [Example 3, N^4-(1H-indol-5-ylmethyl)-N^2-(2-methyl-1H-indol-5-yl)pyrimidine-2,4-diamine] | 4.25 µM
3 | c1cc(NCc2ccc3[nH]ccc3c2)nc(Nc2ccc3[nH]ncc3c2)n1 [Example 4, N^4-(1H-indol-5-ylmethyl)-N^2-(1H-indazol-5-yl)pyrimidine-2,4-diamine] | 4.07 µM
4 | c1ccc2c(CCNc3nccc(NCc4ccc5[nH]ccc5c4)n3)c[nH]c2c1 [Example 9, N^2-[2-(1H-indol-3-yl)ethyl]-N^4-(1H-indol-5-ylmethyl)pyrimidine-2,4-diamine] | 8.73 µM
5 | Oc1ccc2[nH]cc(CCNc3nccc(NCc4ccc5[nH]ccc5c4)n3)c2c1 [Example 10, 3-{2-[4-(1H-indol-5-ylmethylamino)-pyrimidin-2-ylamino]ethyl}-1H-indol-5-ol] | 10.2 µM
6 | Cc1ccc2[nH]cc(CCNc3nccc(NCc4ccc5[nH]ccc5c4)n3)c2c1 [Example 11, N^4-(1H-indol-5-ylmethyl)-N^2-[2-(5-methyl-1H-indol-3-yl)ethyl]pyrimidine-2,4-diamine] | 2.88 µM
7 | Cc1cc2cc(CNc3ccnc(Nc4cccc5[nH]ccc45)n3)ccc2[nH]1 [Example 13, N^2-(1H-indol-4-yl)-N^4-(2-methyl-1H-indol-5-ylmethyl)pyrimidine-2,4-diamine] | 0.55 µM
8 | Cc1cc2cc(CNc3ccnc(NCCc4c[nH]c5ccccc45)n3)ccc2[nH]1 [Example 17, N^2-(2-(1H-indol-3-yl)-ethyl)-N^4-(2-methyl-1H-indol-5-ylmethyl)pyrimidine-2,4-diamine] | 7.28 µM
9 | c1cc(Nc2nccc(NCc3ccc4[nH]ncc4c3)n2)c2cc[nH]c2c1 [Example 18, N^2-(1H-indol-4-yl)-N^4-(1H-indazol-5-ylmethyl)pyrimidine-2,4-diamine] | 0.71 µM
10 | c1cc(Nc2nccc(NCc3ccc4cc[nH]c4c3)n2)c2cc[nH]c2c1 [Example 20, N^4-(1H-indol-6-ylmethyl)-N^2-(1H-indol-4-yl)pyrimidine-2,4-diamine] | 1.01 µM
11 | c1cc(Nc2ccnc(NCc3ccc4[nH]ccc4c3)n2)c2cc[nH]c2c1 [Example 23, N^2-(1H-indol-5-ylmethyl)-N^4-(1H-indol-4-yl)pyrimidine-2,4-diamine] | 1.62 µM
12 | c1ccc2c(CCNc3ccnc(NCc4ccc5[nH]ccc5c4)n3)c[nH]c2c1 [Example 25, N^4-[2-(1H-indol-3-yl)ethyl]-N^2-(1H-indol-5-ylmethyl)pyrimidine-2,4-diamine] | 3.16 µM
13 | Oc1ccc2[nH]cc(CCNc3ccnc(NCc4ccc5[nH]ccc5c4)n3)c2c1 [Example 26, 3-{2-[2-(1H-indol-5-ylmethylamino)-pyrimidin-4-ylamino]ethyl}-1H-indol-5-ol] | 7.01 µM
14 | Cc1ccc2[nH]cc(CCNc3ccnc(NCc4ccc5[nH]ccc5c4)n3)c2c1 [Example 27, N^2-(1H-indol-5-ylmethyl)-N^4-[2-(5-methyl-1H-indol-3-yl)ethyl]pyrimidine-2,4-diamine] | 4.17 µM
15 | COc1ccc2[nH]cc(CCNc3ccnc(NCc4ccc5[nH]ccc5c4)n3)c2c1 [Example 28, N^2-(1H-indol-5-ylmethyl)-N^4-[2-(5-methoxy-1H-indol-3-yl)ethyl]pyrimidine-2,4-diamine] | 3.1 µM
16 | c1cc(Nc2ccnc(NCc3ccc4[nH]ncc4c3)n2)c2cc[nH]c2c1 [Example 29, N^2-(1H-indazol-5-ylmethyl)-N^4-(1H-indol-4-yl)pyrimidine-2,4-diamine] | 2.78 µM
17 | Cc1cc(NCc2ccc3[nH]ccc3c2)nc(NCCc2c[nH]c3ccc(O)cc23)n1 [Example 32, 3-{2-[4-(1H-indol-5-ylmethylamino)-6-methyl-pyrimidin-2-ylamino]-ethyl}-1H-indol-5-ol] | 7.81 µM

Row | SMILES | EC50
18 | Cc1cc2cc(Nc3nc(NCc4ccc5[nH]ccc5c4)cc(C(F)(F)F)n3)ccc2[nH]1 [Example 33, N^4-(1H-indol-5-ylmethyl)-N^2-(2-methyl-1H-indol-5-yl)-6-trifluoromethylpyrimidine-2,4-diamine] | 9.55 µM
19 | FC(F)(F)c1cc(NCc2ccc3[nH]ccc3c2)nc(NCCc2c[nH]c3ccccc23)n1 [Example 35, N^2-(2-(1H-indol-3-yl)ethyl)-N^4-(1H-indol-5-ylmethyl)-6-trifluoromethylpyrimidine-2,4-diamine] | 10.1 µM
20 | Nc1cnc(Nc2cccc3[nH]ccc23)nc1NCc1ccc2[nH]ccc2c1 [Example 38, N^4-(1H-indol-5-ylmethyl)-N^2-(1H-indol-4-yl)pyrimidine-2,4,5-triamine] | 4.33 µM
21 | Nc1cnc(Nc2ccc3[nH]ccc3c2)nc1NCc1ccc2[nH]ccc2c1 [Example 39, N^4-(1H-indol-5-ylmethyl)-N^2-(1H-indol-5-yl)pyrimidine-2,4,5-triamine] | 2.84 µM
22 | Nc1cnc(Nc2ccc3cc[nH]c3c2)nc1NCc1ccc2[nH]ccc2c1 [Example 40, N^4-(1H-indol-5-ylmethyl)-N^2-(1H-indol-6-yl)pyrimidine-2,4,5-triamine] | 4.17 µM
23 | Cc1cc2cc(CNc3nccc(Nc4ccc5[nH]c(C)cc5c4)n3)ccc2[nH]1 [Example 63, N^4-(2-methyl-1H-indol-5-yl)-N^2-(2-methyl-1H-indol-5-ylmethyl)pyrimidine-2,4-diamine] | 0.59 µM
24 | Cc1cc2cc(Nc3ccnc(NCc4ccc5[nH]ncc5c4)n3)ccc2[nH]1 [Example 65, N^2-(1H-indazol-5-ylmethyl)-N^4-(2-methyl-1H-indol-5-yl)pyrimidine-2,4-diamine] | 0.92 µM
25 | COc1ccc2[nH]cc(CCNc3nccc(NCc4ccc5[nH]cnc5c4)n3)c2c1 [Example 69, N^4-(1H-benzo[d]imidazol-5-ylmethyl)-N^2-[2-(5-methoxy-1H-indol-3-yl)ethyl]pyrimidine-2,4-diamine] | < 10 µM
26 | Cc1cc2cc(Nc3ccnc(NCc4ccc5cc[nH]c5c4)n3)ccc2[nH]1 [Example 70, N^2-(1H-indol-6-ylmethyl)-N^4-(2-methyl-1H-indol-5-yl)pyrimidine-2,4-diamine] | < 10 µM
27 | COc1ccc2[nH]cc(CCNc3nccc(NCc4ccc5cc[nH]c5c4)n3)c2c1 [Example 71, N^4-(1H-indol-6-ylmethyl)-N^2-[2-(5-methoxy-1H-indol-3-yl)ethyl]pyrimidine-2,4-diamine] | < 10 µM
28 | c1ccc(COc2ccc3[nH]cc(CCNc4nccc(NCc5ccc6[nH]ccc6c5)n4)c3c2)cc1 [Example 72, N^4-(1H-indol-5-ylmethyl)-N^2-{2-[5-(benzyloxy)-1H-indol-3-yl]ethyl}pyrimidine-2,4-diamine] | < 10 µM
29 | c1cc(NCc2ccc3[nH]ccc3c2)nc(NCCc2c[nH]c3ccc(OCCN4CCOCC4)cc23)n1 [Example 73, N^4-(1H-indol-5-ylmethyl)-N^2-{2-[5-(2-morpholinoethoxy)-1H-indol-3-yl]ethyl}pyrimidine-2,4-diamine] | < 10 µM
30 | COCCOc1ccc2[nH]cc(CCNc3nccc(NCc4ccc5[nH]ccc5c4)n3)c2c1 [Example 74, N^4-(1H-indol-5-ylmethyl)-N^2-{2-[5-(2-methoxyethoxy)-1H-indol-3-yl]ethyl}pyrimidine-2,4-diamine] | < 10 µM
31 | Cn1ccc2c(Nc3nccc(NCc4ccc5[nH]ccc5c4)n3)cccc21 [Example 75, N^4-(1H-indol-5-ylmethyl)-N^2-(1-methyl-1H-indol-4-yl)pyrimidine-2,4-diamine] | 0.61 µM
32 | COC(=O)c1cc(Nc2nccc(NCc3ccc4[nH]ccc4c3)n2)c2cc[nH]c2c1 [Example 81, Methyl 4-[4-(1H-indol-5-ylmethylamino)pyrimidin-2-ylamino]-1H-indole-6-carboxylate] | < 10 µM
33 | c1cc(Nc2ccc3[nH]ccc3c2)nc(NCc2ccc3[nH]ccc3c2)n1 [Example 82, N^2-(1H-indol-5-ylmethyl)-N^4-(1H-indol-5-yl)pyrimidine-2,4-diamine] | 0.49 µM
